In assay [1] the test system is skeletal muscle ischemia-reperfusion injury. To be noted: Iwata et al., Blood 100:2077, 2002; cited from earlier work.
Assay [2] has as its system hind-limbs of C57BL/6 mice, ischemia-reperfusion injury. The experiment in a line: hind-limb tourniquet ischemia (90 minutes) and reperfusion (3 hours), plasma creatine kinase. It is filed as in vivo, mouse. To be noted: pretreatment. On the procedure:
Skeletal muscle was made ischemic by applying a tourniquet to the hind-limbs of C57BL/6 mice for 90 minutes, then removing the tourniquet and allowing reperfusion for an additional 3 hours. Mice were treated with active peptide 1 (SEQ ID NO:17) or peptide 2 (SEQ ID NO:18) or peptide 3 (SEQ ID NO:19), or with the scrambled (control) peptide (SEQ ID NO:20). Peptide-1 (SEQ ID NO:17) is from the BH4 region of Bcl-2. Peptide-2 (SEQ ID NO:18) is from the first alpha helix of A1/Bfl-1. Peptide-3 (SEQ ID NO:19) is from the BH4 region of Bcl-XL. The amino acid sequences of peptide 1 (SEQ ID NO:17), peptide 2 (SEQ ID NO:18), peptide 3 (SEQ ID NO:19), and the scrambled (control) peptide (SEQ ID NO:20) are set forth in Table 1.
At the end of the 3 hours of reperfusion the mice were killed, and blood was taken for determination of plasma creatine kinase (CK) concentration. The CK concentration was used as an indicator of muscle injury. Elevated levels of CK indicate higher levels of muscle injury. […] The CK concentration for peptide 1 (SEQ ID NO:17) treated mice was 19,020+/−5481 IU/L (n=12) compared with control peptide (SEQ ID NO:20) where CK concentration was 60,530+/−5759 IU/L (n=12). The CK concentration for peptide 2 (SEQ ID NO:18) treated mice was 33,860+/−5997 IU/L (n=11) compared with control peptide (SEQ ID NO:20) where CK concentration was 69,430+/−11,170 IU/L (n=12). The CK concentration for peptide 3 (SEQ ID NO:19) treated mice was 49,500+/−3,901 IU/L (n=5) compared with control peptide (SEQ ID NO:20) where CK concentration was 80,880+/−11,430 IU/L (n=6).

Assay [3] relates to previously ischemic muscle of mice. As to the kind of experiment: tourniquet ischemia/reperfusion, skeletal muscle tissue viability by MTT. It is filed as in vivo, mouse. The note with it: measured the following day. An excerpt: The ability of a Bcl protein to inhibit cell death in a mammal, and/or to inhibit inflammation in a mammal concurrent with or after the onset of a condition expected to lead to cell death or inflammation, can be assessed, for example, in a mammal subjected to ischemia-reperfusion injury. As used herein, “determining,” “measuring,” and “assessing,” and “assaying” are used interchangeably and include both quantitative and qualitative determinations. For example, one or more of the following markers and/or assays can be used to assess the ability of a Bcl protein to inhibit cell death and/or inflammation in a mammal subjected to ischemia-reperfusion injury: 1. […] The viability of tissue subjected to I/R was measured using 3-(4,5-dimethylthiazol-2-yl)-2,5-diphenyl tetrazolium (MTT) (Ferrera et al., J Mol Cell Cardiol 25:1091, 1993). […]
Anesthetized mice were subjected to 90 minutes of tourniquet ischemia using a hemorrhoid ligator followed by reperfusion and were treated at various times by a subcutaneous injection of 1 microgram of either rhA1/Bfl-1 or rhBim, a pro-apoptotic Bcl-2 family member that lacks a BH4 or BH4-like domain (O'Connor et al., EMBO J. 17:384, 1998). The following day, mice were killed, the previously ischemic muscle removed, and tissue viability measured using 3-(4,5-dimethylthiazol-2-yl)-2,5-diphenyl tetrazolium (MTT). […]

The subject of assay [4] is C57BL/6 mice subjected to hind limb ischemia and reperfusion. The experiment in a line: hind limb ischemia (aortic cross-clamp, 90 minutes) and reperfusion (3 hours), plasma creatine kinase. The note with it: 1 microgram/mouse intraperitoneally the day before, 12 mice per group. It counts as in vivo. On the procedure: Mouse skeletal muscle was made ischemic by cross-clamping the aorta distal to the renal artery for 90 minutes, then the clamp was removed and hind limb reperfusion continued for 3 hours. At the end of reperfusion (3 hours after clamp removal) the mice were killed, and the concentration of plasma creatine kinase (CK) was measured and used as an indicator of injury (creatine kinase concentration increases as a result of skeletal muscle injury).
Blood from EμT-Bcl-2 mice and their littermate control mice was drawn into heparin and plasma was extracted by centrifugation. One ml of plasma from EμT-Bcl-2 mice, or one ml of plasma from littermate control mice, was injected into the peritoneum of C57BL/6 mice the day before the mice were subjected to 90 minutes of ischemia and 3 hours of reperfusion as described in Example 1 herein. Blood was drawn from the mice and plasma CK concentration was determined at the end of reperfusion.
C57BL/6 mice were injected intraperitoneally with 1 μg per mouse of recombinant human Bcl-2 (rBcl-2) (SEQ ID NO:15) or 1 μg per mouse of recombinant human ubiquitin (rUbiquitin), or the vehicle solution for rBcl-2 the day before the mice were subjected to hind limb ischemia (90 minutes) and reperfusion (180 minutes) as described in Example 1. […]

The mark [5] stands for this setting: experiment peptide 2 (n=11) versus control peptide (n=12).
The mark [6] stands for this setting: experiment peptide 1 (n=12) versus control peptide (n=12).
[7] abbreviates: experiment peptide 3 (n=5) versus control peptide (n=6).

Ends that are not written are not given here. Peptide text beside a SMILES is read from it. * marks the point of attachment. Cbz = O=C(OCc1ccccc1)*; CH2F = FC*

Consider `CC(NC(=O)C(NC(=O)OCc1ccccc1)C(C)C)C(=O)NC(CC(=O)O)C(=O)CF` (stereo not drawn) [z-VAD] (Cbz-Val-Ala-Asp-CH2F; configuration not given here), for which, in assay [1], the “DNA strand-breaks after extended ischemia and reperfusion of skeletal muscle” value is “prevents the strand-breaks”; the “plasma CK concentration after extended ischemia and reperfusion of skeletal muscle” value was “reduces the plasma CK concentration”.
On to “FGYIYRLAQDYLQCVLQIPZPGSGP (FGYIYRLAQDYLQCVLQIPXPGSGP; X not resolved here; also: Z at 20 undefined) [peptide 2, from the first alpha helix of A1/Bfl-1]”, for which the CK concentration in assay [2] (setting [5]) is reported as 33,860+/−5997 IU/L.
As for TGYDNREIVMKYIHYKLSQRGYEWD [peptide 1], in assay [2] (setting [6]), the CK concentration is reported as 19,020+/−5481 IU/L.
Consider MSQSNRELVVDFLSYKLSQKGYSWSQF [peptide 3], for which the CK concentration in assay [2] (setting [7]) is 49,500+/−3,901 IU/L.
Consider “TWHMYGNQRDYIGDRSKIVYKLEYE [control peptide, scrambled (control) peptide, reference compound]”, for which the CK concentration in assay [2] (setting [6]) is listed as 60,530+/−5759 IU/L; in assay [2] (setting [5]) it was 69,430+/−11,170 IU/L; in assay [2] (setting [7]), 80,880+/−11,430 IU/L.

B1: rhA1/Bfl-1: human A1 minus 25 amino acids at the carboxy terminal and addition of 6 histidine on the remaining protein (protein, listed as Homo sapiens)
chain: MTDCEFGYIYRLAQDYLQCVLQIPQPGSGPSKTSRVLQNVAFSVQKEVEKNLKSCLDNVNVVSVDTARTLFNQVMEKEFEDGIINWGRIVTIFAFEGILIKKLLRQQIAPDVDTYKEISYFVAEFIMNNTGEWIRQNGGWENGFVKKFEPKSHHHHHH
Turning to B1, the “tissue viability normalized to tissue dry weight (MTT), compared to rhBim” value in assay [3] (1 microgram subcutaneous 4 hours after the start of reperfusion, FIG. 11) is “significantly greater tissue viability”; in assay [3] (1 microgram subcutaneous at the time of reperfusion, FIG. 10) it was “greater viability”. Also, the “plasma creatine kinase concentration compared to mice injected with rUbiquitin” value in assay [4] is given as “significantly (p<0.05) lower”. Besides, the “average plasma creatine kinase concentration” value in assay [4] (90 min ischemia, 180 min reperfusion) was 4,353+/−1284 IU/L.

The values above are taken from US20110263510A1, “Methods of Inhibiting Cell Death or Inflammation in a Mammal” (priority 2006, published 2011).
